According to paper PMC7125101, “Molecular bases for HOIPINs-mediated inhibition of LUBAC and innate immune responses” (Communications Biology, 2020):
Where a name gives a salt, the structure may show the parent alone. Read-outs that look alike come from different tables or passages of the source. One block for each molecule: values may come before it.

How the values were obtained:
HOIP = biological target: T1, HOIP (Homo sapiens, UniProt Q96EP0); test: X-ray crystal structure at […] Å; also MALDI-TOF intact mass adduct (+[…]) on petit-LUBAC and inhibition of HOIP~ubiquitin thioester formation; assay type: binding
T1 construct: gene RNF31; RING2-LDD domain, residues 853–1072

A549 = test: cells; parameters: species or system human tumour lines, HEK293T, mouse MEF; Cell viability after 72 h, CellTiter-Glo luminescent assay; settings: Homo sapiens, A549, 72 h
BJAB = test: cells; parameters: species or system human tumour lines, HEK293T, mouse MEF; Cell viability after 72 h, CellTiter-Glo luminescent assay; settings: Homo sapiens, BJAB, 72 h
DLBCL2 = test: cells; parameters: species or system human tumour lines, HEK293T, mouse MEF; Cell viability after 72 h, CellTiter-Glo luminescent assay; settings: Homo sapiens, HEK-293T, 72 h; read-out: HOIPIN-1 (IC50)
HBL1 = test: cells; parameters: species or system human tumour lines, HEK293T, mouse MEF; Cell viability after 72 h, CellTiter-Glo luminescent assay; settings: HBL1, 72 h
HT = test: cells; parameters: species or system human tumour lines, HEK293T, mouse MEF; Cell viability after 72 h, CellTiter-Glo luminescent assay; settings: Homo sapiens, HT, 72 h
HeLa = test: cells; parameters: species or system human tumour lines, HEK293T, mouse MEF; Cell viability after 72 h, CellTiter-Glo luminescent assay; settings: Homo sapiens, HeLa, 72 h
Jurkat = test: cells; parameters: species or system human tumour lines, HEK293T, mouse MEF; Cell viability after 72 h, CellTiter-Glo luminescent assay; settings: Homo sapiens, Jurkat, 72 h
KM-H2 = test: cells; parameters: species or system human tumour lines, HEK293T, mouse MEF; Cell viability after 72 h, CellTiter-Glo luminescent assay; settings: Homo sapiens, KM-H2, 72 h
Karpas1160P = test: cells; parameters: species or system human tumour lines, HEK293T, mouse MEF; Cell viability after 72 h, CellTiter-Glo luminescent assay; settings: Homo sapiens, HEK-293T, 72 h
OYB = test: cells; parameters: species or system human tumour lines, HEK293T, mouse MEF; Cell viability after 72 h, CellTiter-Glo luminescent assay; settings: Homo sapiens, HEK-293T, 72 h
SU-DHL-4 = test: cells; parameters: species or system human tumour lines, HEK293T, mouse MEF; Cell viability after 72 h, CellTiter-Glo luminescent assay; settings: Homo sapiens, SU-DHL-4, 72 h
TK = test: cells; parameters: species or system human tumour lines, HEK293T, mouse MEF; Cell viability after 72 h, CellTiter-Glo luminescent assay; settings: Homo sapiens, HEK-293T, 72 h
WT-MEF = test: cells; parameters: species or system human tumour lines, HEK293T, mouse MEF; Cell viability after 72 h, CellTiter-Glo luminescent assay; settings: 72 h
Text: (§1) Importantly, the polymorphisms in HOIP are closely associated with ABC-DLBCL[23]. […] Therefore, we investigated the effect of HOIPINs on B cell lymphoma cells. […] In ABC-DLBCL cell lines, the phosphorylation of p105 and p65 and the expression of NF-κB target genes were suppressed by HOIPINs (Fig. 6d, e). Moreover, the phosphorylation of IκBα was decreased concomitantly with the reduced intracellular amounts of linear polyubiquitin in HOIPIN-1-treated HBL1 cells (an ABC-DLBCL cell line), but not in BJAB cells (a GCB-DLBCL cell line) (Fig. 6f). […] GCB-DLBCL cells (BJAB, SU-DHL-4, and HT) and ABC-DLBCL cells (TK, DLBCL2, and OYB) were cultured in the presence of DMSO or 10 μM HOIPIN-1. Taking the cell viabilities in the presence of DMSO as 100%, the relative cell viabilities of respective cell line in the presence of HOIPIN-1 were assessed by a CellTiter-Glo luminescent cell viability assay. b HOIPIN-8 enhanced the cell death of ABC-DLBCL cells than HOIPIN-1. DLBCL2 cells or BJAB cells were treated with DMSO, 10 μM HOIPIN-1, or 10 μM HOIPIN-8 for the indicated period, and the relative cell viabilities were assessed as in a. c Caspase activation in ABC-DLBCL cells by HOIPIN-8. Cells were treated with or without 10 μM HOIPIN-8 for 24 h, and cell lysates were immunoblotted with the indicated antibodies. d Reduced NF-κB activation in ABC-DLBCL cells by HOIPIN-8. Cells were treated and analyzed as in c. e HOIPIN-1 suppresses the expression of NF-κB target genes in ABC-DLBCL cells. Cells were treated with 10 μM HOIPIN-1 for 24 h, and qPCR analyses were performed. f Intracellular linear ubiquitin and IκBα phosphorylation in ABC-DLBCL cells are diminished by HOIPIN-1. HBL1 and BJAB cells were treated with 10 μM HOIPIN-1 for the indicated period, and cell lysates were immunoblotted with the indicated antibodies. g HOIPIN-8 has potent inhibitory effects on NF-κB activation and linear ubiquitination in ABC-DLBCL cells than those in HOIPIN-1. HBL1 cells were treated with the indicated concentrations of HOIPIN-1 or -8 for 24 h, and cell lysates were immunoblotted with the indicated antibodies. In b, e, data are shown as mean ± SEM, NS not significant, *P < 0.05, **P < 0.01, ***P < 0.001, ****P < 0.0001, by one-way ANOVA with Tukey’s post hoc test. A549, HEK293T, HeLa (ATCC), optineurin-deficient HeLa[31], HOIP-deficient HeLa, C885A mutant of HOIP-restored HeLa, wild-type MEF, and Sharpin-deficient cpdm MEF cells were cultured in DMEM containing 10% fetal bovine serum, 100 IU/ml penicillin G, and 100 μg/ml streptomycin. […]

cpdm MEF = test system: T2, cpdm MEF; test: cells; parameters: species or system human tumour lines, HEK293T, mouse MEF; Cell viability after 72 h, CellTiter-Glo luminescent assay; settings: 72 h
T2 construct: cpdm (Sharpin-deficient)
Text: as §1

HEK293T = test: cells; parameters: species or system human tumour lines, mouse MEF; Cell viability after 72 h, CellTiter-Glo luminescent assay; settings: Homo sapiens, HEK-293T, 72 h
Text: Importantly, the polymorphisms in HOIP are closely associated with ABC-DLBCL[23]. […] Therefore, we investigated the effect of HOIPINs on B cell lymphoma cells. […] In ABC-DLBCL cell lines, the phosphorylation of p105 and p65 and the expression of NF-κB target genes were suppressed by HOIPINs (Fig. 6d, e). Moreover, the phosphorylation of IκBα was decreased concomitantly with the reduced intracellular amounts of linear polyubiquitin in HOIPIN-1-treated HBL1 cells (an ABC-DLBCL cell line), but not in BJAB cells (a GCB-DLBCL cell line) (Fig. 6f). […] GCB-DLBCL cells (BJAB, SU-DHL-4, and HT) and ABC-DLBCL cells (TK, DLBCL2, and OYB) were cultured in the presence of DMSO or 10 μM HOIPIN-1. Taking the cell viabilities in the presence of DMSO as 100%, the relative cell viabilities of respective cell line in the presence of HOIPIN-1 were assessed by a CellTiter-Glo luminescent cell viability assay. b HOIPIN-8 enhanced the cell death of ABC-DLBCL cells than HOIPIN-1. DLBCL2 cells or BJAB cells were treated with DMSO, 10 μM HOIPIN-1, or 10 μM HOIPIN-8 for the indicated period, and the relative cell viabilities were assessed as in a. c Caspase activation in ABC-DLBCL cells by HOIPIN-8. […] Cells were treated and analyzed as in c. e HOIPIN-1 suppresses the expression of NF-κB target genes in ABC-DLBCL cells. […]

IC50 (A549; read-out: HOIPIN-1 (IC50)): > 100 µM | IC50 (HeLa; read-out: HOIPIN-1 (IC50)): 33.7 µM | IC50 (Jurkat; read-out: HOIPIN-1 (IC50)): 20.6 µM | IC50 (Karpas1160P; read-out: HOIPIN-1 (IC50)): 11 µM | IC50 (SU-DHL-4; read-out: HOIPIN-1 (IC50)): 46.9 µM
Compound: COc1ccccc1C(=O)/C=C/c1ccccc1C(=O)O [HOIPIN-1, 2-[(1E)-3-(2-methoxyphenyl)-3-oxoprop-1-en-1yl] benzoic acid sodium salt]
X-ray crystal structure at 1.54 Å; also MALDI-TOF intact mass adduct (+263) on p (HOIP): HOIPINs are covalently attached to the catalytic Cys885 of HOIP via Michael addition | IC50 (BJAB; read-out: HOIPIN-1 (IC50)): 52.2 µM | IC50 (DLBCL2): 11.1 µM | IC50 (HBL1; read-out: HOIPIN-1 (IC50)): 16.4 µM | IC50 (HT; read-out: HOIPIN-1 (IC50)): 48.2 µM | IC50 (KM-H2; read-out: HOIPIN-1 (IC50)): 9.6 µM | IC50 (OYB; read-out: HOIPIN-1 (IC50)): 16 µM | IC50 (TK; read-out: HOIPIN-1 (IC50)): 9.7 µM | IC50 (WT-MEF; read-out: HOIPIN-1 (IC50)): > 100 µM | IC50 (cpdm MEF; read-out: HOIPIN-1 (IC50)): > 100 µM | IC50 (HEK293T; read-out: HOIPIN-1 (IC50)): 40.3 µM

IC50 (A549; read-out: HOIPIN-8 (IC50)): > 100 µM | IC50 (HeLa; read-out: HOIPIN-8 (IC50)): > 100 µM | IC50 (Jurkat; read-out: HOIPIN-8 (IC50)): > 100 µM | IC50 (Karpas1160P; read-out: HOIPIN-8 (IC50)): 27.6 µM | IC50 (SU-DHL-4; read-out: HOIPIN-8 (IC50)): > 30 µM
Compound: Cn1cc(-c2ccc(C(=O)O)c(/C=C/C(=O)c3c(F)cc(-c4cn[nH]c4)cc3F)c2)cn1 [HOIPIN-8, 2-{(E)-3-[2,6-difluoro-4-(1H-pyrazol-4-yl)-phenyl]-3-oxo-propenyl}-4-(1-methyl-1H-pyraol-4-yl)-benzoic acid sodium salt]
IC50 (BJAB; read-out: HOIPIN-8 (IC50)): > 30 µM | IC50 (HBL1; read-out: HOIPIN-8 (IC50)): 16.7 µM | IC50 (HT; read-out: HOIPIN-8 (IC50)): > 30 µM | IC50 (KM-H2; read-out: HOIPIN-8 (IC50)): 40.7 µM | IC50 (OYB; read-out: HOIPIN-8 (IC50)): 14.4 µM | IC50 (TK; read-out: HOIPIN-8 (IC50)): 3.7 µM | IC50 (WT-MEF; read-out: HOIPIN-8 (IC50)): 49.7 µM | IC50 (cpdm MEF; read-out: HOIPIN-8 (IC50)): 51.8 µM | IC50 (HEK293T; read-out: HOIPIN-8 (IC50)): 70.3 µM
